From ChEMBL document CHEMBL1201862, “PubChem BioAssay data set” (2004)
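Each compound was tested at five concentrations against cells in 96-well plates for 48 hours. At the GI50, growth is halved.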 Calls of active or inactive are those of the source. No stated cut-off is given here; in the data, active = GI50 up to about 1.1 µM and inactive = higher.

Assays:
Assay in all cases: NCI tumour cell line growth inhibition, 48 h
[1] = test system: 786-0
[2] = test system: ACHN
[3] = test system: HOP-92
[4] = test system: SF-539
[5] = test system: TK-10
[6] = test system: UACC-257
[7] = test system: SK-MEL-28
[8] = test system: HL-60
[9] = test system: MDA-N
[10] = test system: NCI-H460
[11] = test system: IGROV-1
[12] = test system: NCI-H226
[13] = test system: NCI-H23
[14] = test system: SK-MEL-2
[15] = test system: HCT-116
[16] = test system: MCF7
[17] = test system: SW-620
[18] = test system: HCT-15
[19] = test system: MDA-MB-231
[20] = test system: SR
[21] = test system: BT-549
[22] = test system: HCC 2998
[23] = test system: K562
[24] = test system: COLO 205
[25] = test system: A498
[26] = test system: SN12C
[27] = test system: OVCAR-8
[28] = test system: LOX IMVI
[29] = test system: SK-MEL-5
[30] = test system: U-251
[31] = test system: CCRF-CEM
[32] = test system: SF-268
[33] = test system: RPMI-8226
[34] = test system: NCI/ADR-RES
[35] = test system: Hs-578T
[36] = test system: NCI-H522
[37] = test system: UACC-62
[38] = test system: Malme-3M
[39] = test system: PC-3
[40] = test system: MOLT-4
[41] = test system: OVCAR-3
[42] = test system: HOP-62
[43] = test system: OVCAR-5
[44] = test system: M14
[45] = test system: KM12
[46] = test system: A549
[47] = test system: UO-31
[48] = test system: MDA-MB-435
[49] = test system: SNB-19
[50] = test system: OVCAR-4
[51] = test system: HT-29
[52] = test system: SNB-75
[53] = test system: SK-OV-3
[54] = test system: SF-295

Measured: GI50

Nc1c2c(nc3ccccc13)CCCCCC2
30.3 µM: [18]
inactive: [1] 16.4 µM | [2] 27.1 µM | [3] 13.6 µM | [4] 16.1 µM | [5] 15.2 µM | [6] 15.4 µM | [7] 13.8 µM | [8] 7.26 µM | [9] 16.5 µM | [10] 16.6 µM | [11] 22.4 µM | [12] 43.3 µM | [13] 42.1 µM | [14] 13.7 µM | [15] 20.8 µM | [16] 26.9 µM | [17] 17.1 µM | [19] 18.5 µM | [20] 15.7 µM | [21] 84.5 µM | [22] 14.4 µM | [23] 21.5 µM | [24] 14.2 µM | [25] 20.7 µM | [26] 40.7 µM | [27] 30.4 µM | [28] 16 µM | [29] 17.5 µM | [30] 26.8 µM | [31] 15.6 µM | [32] 39.3 µM | [33] 19.1 µM | [34] 37.5 µM | [35] 38.5 µM | [36] 19.6 µM | [37] 16.6 µM | [38] 18 µM | [39] 20.8 µM | [40] 27.2 µM

C[C@@]1(Br)C[C@@](C)(Cl)[C@@H](Br)CC1/C=C/Cl (stereo not given in full)
27 µM: [18]
inactive: [41] 15.1 µM | [1] 16.6 µM | [2] 18.1 µM | [4] 15.2 µM | [5] 18.4 µM | [6] 17.9 µM | [7] 21.9 µM | [9] 15.8 µM | [10] 28.6 µM | [11] 8.15 µM | [12] 10.8 µM | [13] 28.6 µM | [14] 16.7 µM | [15] 11 µM | [16] 16.6 µM | [17] 26.9 µM | [42] 17 µM | [43] 15.1 µM | [44] 16.6 µM | [19] 20.1 µM | [45] 16.1 µM | [46] 17.7 µM | [20] 14.1 µM | [21] 19.1 µM | [47] 18.5 µM | [22] 31.6 µM | [48] 16.9 µM | [23] 15.3 µM | [49] 18.6 µM | [24] 15.6 µM | [26] 15 µM | [27] 16 µM | [28] 17.6 µM | [29] 13.6 µM | [50] 24.8 µM | [30] 19.3 µM | [31] 11.1 µM | [32] 11.1 µM | [51] 16.1 µM | [33] 16 µM | [34] 13.1 µM | [52] 12.8 µM | [53] 17.5 µM | [35] 16.7 µM | [37] > 10 µM | [54] 14.4 µM | [39] 15.9 µM | [40] 13.3 µM
active: [38] < 0.01 µM
